According to the OPERA property sets (Mansouri et al. 2018):

Compound | logP
COc1ccccc1N1CCN(CC2CN=C(N)O2)CC1 (stereo not given) | 0.76
NC1=NCC(CN2CCN(c3ccccn3)CC2)O1 (stereo not given) | 0.48
CCOc1ccccc1N1CCN(CC2CN=C(N)O2)CC1 (stereo not given) | 1.21
Cc1ccc(N2CCN(CC3CN=C(N)O3)CC2)cc1 (stereo not given) | 1.23
Cc1cccc(N2CCN(CC3CN=C(N)O3)CC2)c1C (stereo not given) | 2.19
NC1=NCC(CN2CCN(c3ccc(Cl)cc3)CC2)O1 (stereo not given) | 1.71
NC1=NCC(CN2CCN(c3ccccc3Cl)CC2)O1 (stereo not given) | 1.87
NC1=NCC(CN2CCN(c3ncccn3)CC2)O1 (stereo not given) | 0.21
COc1ccc(N2CCN(CC3CN=C(N)O3)CC2)cc1 (stereo not given) | 0.68

Other lines, results leading:

logP | Compound
1 | NC1=NCC(CN2CCN(c3ccc(F)cc3)CC2)O1 (stereo not given)
0.85 | NC1=NCC(CN2CCN(c3ccccc3)CC2)O1 (stereo not given)
2.21 | NC1=NCC(CN2CCN(c3cccc(C(F)(F)F)c3)CC2)O1 (stereo not given)
1.83 | NC1=NCC(CN2CCN(c3cccc(Cl)c3)CC2)O1 (stereo not given)
0.87 | COc1cccc(N2CCN(CC3CN=C(N)O3)CC2)c1 (stereo not given)
2.4 | NC1=NCC(CN2CCN(c3ccc(Cl)c(Cl)c3)CC2)O1 (stereo not given)
